From PubChem BioAssay AID651581 (Sanford-Burnham Center for Chemical Genomics, 2012) come the findings set out here.

SMILES strings stand for the structures. Activity calls are given as the source filed them. How the calls were made is not given here.

Assay [1] addresses Endothelial PAS domain-containing protein 1 (Homo sapiens) (UniProt Q99814). The experiment in a line: potency against HIF reporters across cell lines – luminescence, panel, selectivity assay for HIF-2a inhibitor project, dose response (AID 651581). The conditions noted are these: human cell HIF reporter.
Assay [2] deals with Hypoxia-inducible factor 1-alpha (Homo sapiens) (UniProt Q16665). Described as above. To be noted: human cell HIF reporter, HIF-1a.
Sequence of Hypoxia-inducible factor 1-alpha (Homo sapiens) (Q16665 whole entry, looked up): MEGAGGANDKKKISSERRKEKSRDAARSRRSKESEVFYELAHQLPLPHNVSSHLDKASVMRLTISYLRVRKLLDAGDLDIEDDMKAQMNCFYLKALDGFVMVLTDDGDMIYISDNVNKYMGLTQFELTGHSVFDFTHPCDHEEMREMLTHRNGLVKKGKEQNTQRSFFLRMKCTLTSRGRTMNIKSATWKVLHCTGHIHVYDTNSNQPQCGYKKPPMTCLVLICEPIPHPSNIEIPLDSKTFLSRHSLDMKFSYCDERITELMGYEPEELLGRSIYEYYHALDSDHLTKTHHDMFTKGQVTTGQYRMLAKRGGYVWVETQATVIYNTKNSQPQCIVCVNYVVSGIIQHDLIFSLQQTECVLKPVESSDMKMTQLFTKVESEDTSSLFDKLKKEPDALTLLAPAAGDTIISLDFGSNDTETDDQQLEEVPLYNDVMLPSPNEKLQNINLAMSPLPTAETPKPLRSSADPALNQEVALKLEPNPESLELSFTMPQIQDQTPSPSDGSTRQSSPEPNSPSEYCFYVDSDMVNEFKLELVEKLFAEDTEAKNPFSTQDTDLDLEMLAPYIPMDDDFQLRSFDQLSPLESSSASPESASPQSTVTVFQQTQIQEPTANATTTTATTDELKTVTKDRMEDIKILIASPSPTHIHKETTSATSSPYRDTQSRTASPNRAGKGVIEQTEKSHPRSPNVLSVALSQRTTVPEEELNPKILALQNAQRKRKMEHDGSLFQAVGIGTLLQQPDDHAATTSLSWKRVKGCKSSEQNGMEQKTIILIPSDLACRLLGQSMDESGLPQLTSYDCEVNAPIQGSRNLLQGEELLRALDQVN

`O=C(O)c1ccc(N/N=C/c2ccc3ncccc3c2)cc1`: the IC50 was more than 99 µM in assay [1] (HIF-2a PANC, run 1); 19.3 µM in assay [1] (HIF-2a PANC, run 2); less than 30 µM in assay [1] (HIF-2a, run 1); more than 99 µM in assay [1] (HIF-2a, run 2); 18.8 µM in assay [2] (run 1); 16.8 µM in assay [2] (run 2). Besides, the IC50 result in assay [2] (mean of runs) was “inactive”.

With `O=C1C=CC(=O)N1c1cccc(-c2ccccc2)c1`, the IC50 in assay [1] (HIF-2a PANC, run 1) is more than 99 µM; in assay [1] (HIF-2a PANC, run 2) it was 58.5 µM; in assay [1] (HIF-2a, mean of runs), 8.09 µM; in assay [1] (HIF-2a, run 1), 7.96 µM; in assay [1] (HIF-2a, run 2) it was 8.22 µM; in assay [2] (mean of runs) it was 31.4 µM. The figures for the IC50 in assay [2] (run 1) and in assay [2] (run 2) were 26.2 µM and 36.6 µM, respectively.

With `Cc1ccc(Oc2ccc(OCC(=O)Nc3ccncc3)cc2)cc1`, the IC50 is 3.59 µM in assay [1] (HIF-2a PANC, mean of runs); 3.76 µM in assay [1] (HIF-2a PANC, run 1); 3.42 µM in assay [1] (HIF-2a PANC, run 2); 5.89 µM in assay [1] (HIF-2a, mean of runs); 5.61 µM in assay [1] (HIF-2a, run 1); 6.17 µM in assay [1] (HIF-2a, run 2). In addition, the IC50 in assay [2] (run 1) came out at 14.9 µM; in assay [2] (run 2), 15.9 µM. The IC50 result in assay [2] (mean of runs) is “inactive”.

Consider `Cc1nnnn1/C(=C\c1ccccc1)C(=O)OCC(=O)Nc1ccc(Cl)cc1F`, for which the IC50 is 19.9 µM in assay [1] (HIF-2a PANC, mean of runs); 19.3 µM in assay [1] (HIF-2a PANC, run 1); 20.6 µM in assay [1] (HIF-2a PANC, run 2); 8.16 µM in assay [1] (HIF-2a, mean of runs); 8.44 µM in assay [1] (HIF-2a, run 1); 7.88 µM in assay [1] (HIF-2a, run 2). In addition, the IC50 in assay [2] (run 1) was found to be 16 µM; in assay [2] (run 2), 21.2 µM. Further, the IC50 entry in assay [2] (mean of runs) is “inactive”.

`CC(C)C[C@@H](N)c1nnc(SCC(=O)c2ccc(Cl)cc2)o1`: the IC50 in assay [1] (HIF-2a PANC, mean of runs) is 3.91 µM; in assay [1] (HIF-2a PANC, run 1) it was 4.22 µM; in assay [1] (HIF-2a PANC, run 2), 3.6 µM; in assay [1] (HIF-2a, mean of runs), 4.02 µM; in assay [1] (HIF-2a, run 1), 4.09 µM; in assay [1] (HIF-2a, run 2), 3.94 µM. The IC50 in assay [2] (run 1) and in assay [2] (run 2) was more than 99 µM throughout.

As for `CC(=O)Nc1ccc(OS(=O)(=O)c2ccc(C)cc2C)cc1`, the IC50 in assay [1] (HIF-2a PANC, mean of runs) is 7.66 µM; in assay [1] (HIF-2a PANC, run 1), 5.49 µM; in assay [1] (HIF-2a PANC, run 2) it was 9.84 µM; in assay [1] (HIF-2a, mean of runs), 3.79 µM; in assay [1] (HIF-2a, run 1) it was 3.7 µM; in assay [1] (HIF-2a, run 2), 3.87 µM. Further, the IC50 in assay [2] (mean of runs) is 24.9 µM; in assay [2] (run 1) it was 28.2 µM; in assay [2] (run 2) it was 21.6 µM.

Take `Cc1cc(SC#N)cc(C)c1NC(=O)CCl`: the IC50 in assay [1] (HIF-2a PANC, run 1) is more than 99 µM; in assay [1] (HIF-2a PANC, run 2), 93.4 µM; in assay [1] (HIF-2a, run 1), 12.6 µM; in assay [1] (HIF-2a, run 2), 7.78 µM; in assay [2] (run 1) it was 20.2 µM; in assay [2] (run 2), 28.5 µM. For the same compound, the IC50 entry in assay [1] (HIF-2a, mean of runs) is “inactive”; in assay [2] (mean of runs), “inactive”.

Regarding `O=C(c1ccccc1)c1cc(Cl)ccc1N1C(=O)C=CC1=O`, the IC50 was 25.3 µM in assay [1] (HIF-2a PANC, run 1); more than 99 µM in assay [1] (HIF-2a PANC, run 2); 6.91 µM in assay [1] (HIF-2a, mean of runs); 7.05 µM in assay [1] (HIF-2a, run 1); 6.78 µM in assay [1] (HIF-2a, run 2); 58.4 µM in assay [2] (mean of runs). The IC50 was determined as 55 µM in assay [2] (run 1) and 61.7 µM in assay [2] (run 2).

In the case of `Cc1ccc(S(=O)(=O)ON2C(=O)c3ccccc3C2=O)c(C)c1`, the IC50 is more than 99 µM in assay [1] (HIF-2a PANC, run 1); 38.7 µM in assay [1] (HIF-2a PANC, run 2); 5.62 µM in assay [1] (HIF-2a, mean of runs); 5.63 µM in assay [1] (HIF-2a, run 1); 5.6 µM in assay [1] (HIF-2a, run 2); more than 99 µM in assay [2] (run 1). In assay [2] (run 2), the IC50 is more than 99 µM.

As for `Cc1ccc(-n2nc3ccc(N)cc3n2)c(C)c1`, in assay [1] (HIF-2a PANC, mean of runs), the IC50 entry is “inactive”. The IC50 is 1.69 µM in assay [1] (HIF-2a PANC, run 1); 3.51 µM in assay [1] (HIF-2a PANC, run 2); 0.452 µM in assay [1] (HIF-2a, mean of runs); 0.456 µM in assay [1] (HIF-2a, run 1); 0.448 µM in assay [1] (HIF-2a, run 2); more than 99 µM in assay [2] (run 1). The IC50 in assay [2] (run 2) is more than 99 µM.

Take `Cc1ccc(C)c(-c2nc3cc(N)ccc3o2)c1`: the IC50 was 2.65 µM in assay [1] (HIF-2a PANC, mean of runs); 2.6 µM in assay [1] (HIF-2a PANC, run 1); 2.7 µM in assay [1] (HIF-2a PANC, run 2); 3.03 µM in assay [1] (HIF-2a, mean of runs); 3.35 µM in assay [1] (HIF-2a, run 1); 2.7 µM in assay [1] (HIF-2a, run 2). For the same compound, the IC50 in assay [2] (run 1) is more than 99 µM; in assay [2] (run 2), 56.4 µM.

In the case of `CC(=O)/C=C1/C(=O)Nc2ccccc21`, the IC50 was > 99 µM (inactive) in assay [1] (HIF-2a PANC, mean of runs); more than 99 µM in assay [1] (HIF-2a PANC, run 1); more than 99 µM in assay [1] (HIF-2a PANC, run 2); 13.9 µM in assay [1] (HIF-2a, run 1); 14.2 µM in assay [1] (HIF-2a, run 2); 32.6 µM in assay [2] (run 1). Moreover, the IC50 in assay [2] (run 2) came out at 26.2 µM. Moreover, the IC50 entry in assay [1] (HIF-2a, mean of runs) is “inactive”; in assay [2] (mean of runs), “inactive”.

`Nc1ccc2oc(-c3cc(Br)ccc3Cl)nc2c1`: the IC50 in assay [1] (HIF-2a PANC, mean of runs) was 0.506 µM; in assay [1] (HIF-2a PANC, run 1), 0.52 µM; in assay [1] (HIF-2a PANC, run 2) it was 0.492 µM; in assay [1] (HIF-2a, mean of runs), 1.1 µM; in assay [1] (HIF-2a, run 1) it was 1.08 µM; in assay [1] (HIF-2a, run 2), 1.13 µM. For the same compound, the IC50 in assay [2] (run 1) was 69.1 µM; in assay [2] (run 2) it was more than 99 µM.
